According to patent US4399136A, “Pyrazolopyridazine antihypertensives” (Hoffmann-La Roche Inc., priority 1980, dated 1983):

These compounds were tested against T1, angiotensin converting enzyme, extracted from rabbit lung (Oryctolagus cuniculus, UniProt P12822) (assay: in vitro inhibition of angiotensin converting enzyme (cleavage of hippuryl-histidyl-leucine)). Conditions: hippuryl-histidyl-leucine 2 mM; rabbit lung ACE; pH 8.3; 25 minutes at 37° C.
T1 construct: extracted from rabbit lung; from tissue; host or cells: rabbit lung
T1 sequence (P12822 34-1310): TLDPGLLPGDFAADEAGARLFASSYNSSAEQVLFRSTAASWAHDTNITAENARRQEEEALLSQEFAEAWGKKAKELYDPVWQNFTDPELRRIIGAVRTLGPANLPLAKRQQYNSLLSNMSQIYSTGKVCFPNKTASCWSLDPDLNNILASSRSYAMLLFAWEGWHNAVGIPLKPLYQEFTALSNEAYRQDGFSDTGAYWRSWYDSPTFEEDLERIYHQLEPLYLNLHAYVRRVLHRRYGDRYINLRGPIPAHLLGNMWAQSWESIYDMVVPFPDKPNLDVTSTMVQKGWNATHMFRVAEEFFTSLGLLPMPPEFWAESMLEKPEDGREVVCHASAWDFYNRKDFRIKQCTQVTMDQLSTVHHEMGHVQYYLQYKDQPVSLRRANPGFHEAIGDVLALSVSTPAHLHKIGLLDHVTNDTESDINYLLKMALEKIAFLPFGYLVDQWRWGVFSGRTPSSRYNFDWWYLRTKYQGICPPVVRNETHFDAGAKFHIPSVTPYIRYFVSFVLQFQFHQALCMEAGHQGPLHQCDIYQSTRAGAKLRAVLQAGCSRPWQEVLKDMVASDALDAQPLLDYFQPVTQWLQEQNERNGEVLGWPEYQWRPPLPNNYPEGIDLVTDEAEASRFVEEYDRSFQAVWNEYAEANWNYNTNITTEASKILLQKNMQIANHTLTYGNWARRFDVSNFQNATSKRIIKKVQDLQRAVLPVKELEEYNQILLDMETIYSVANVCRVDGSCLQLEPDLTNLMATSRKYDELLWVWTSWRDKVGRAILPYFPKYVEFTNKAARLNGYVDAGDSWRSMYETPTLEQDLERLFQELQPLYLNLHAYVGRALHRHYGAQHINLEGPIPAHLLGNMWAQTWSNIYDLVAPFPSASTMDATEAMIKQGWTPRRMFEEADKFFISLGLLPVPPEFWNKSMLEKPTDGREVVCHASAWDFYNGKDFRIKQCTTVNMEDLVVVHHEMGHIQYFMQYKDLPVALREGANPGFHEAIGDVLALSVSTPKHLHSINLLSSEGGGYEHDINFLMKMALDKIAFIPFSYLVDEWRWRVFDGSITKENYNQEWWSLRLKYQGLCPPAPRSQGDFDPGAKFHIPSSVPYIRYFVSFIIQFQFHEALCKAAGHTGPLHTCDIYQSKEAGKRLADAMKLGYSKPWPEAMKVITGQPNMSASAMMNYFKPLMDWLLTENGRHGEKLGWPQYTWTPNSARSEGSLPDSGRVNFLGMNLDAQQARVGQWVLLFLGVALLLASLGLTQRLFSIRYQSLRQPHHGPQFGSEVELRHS
Type: biochemical
Method: The activity of the pyrazolopyridazine derivatives of formula I in inhibiting angiotensin converting enzyme in vitro can be determined by the following test.
The method used is based on the method of Cushman and Cheung (Biochem. Pharmacol., 20, 1637-1648) incorporating the modifications introduced by Hayakari et al. (Anal. Biochem., 84, 361-369). The substrate (hippuryl-histidyl-leucine, 2 mM) is incubated with angiotensin converting enzyme, extracted from rabbit lung, in the presence or absence of various concentrations of test substance in potassium phosphate buffer (pH 8.3; 100 mM) containing sodium chloride (300 mM) for 25 minutes at 37° C. (total […] 500 μl). The reaction is terminated by the addition of 3 ml of potassium phosphate buffer (pH 8.3; 200 mM) at 0° C. 2,4,6-Trichloro-s-triazine (3%) in 1.5 ml of dioxane is added and the mixture is agitated until the yellow chromophore has developed fully. The samples are then centrifuged to remove any precipitate which has formed. The yellow chromophore formed by the reaction of the 2,4,6-trichloro-s-triazine with free hippuric acid is measured spectrophotometrically at 382 nm. IC50 values are defined as the concentration of test substance which reduces by 50% the cleavage of hippurly-histidyl-leucine by angiotensin converting enzyme under the aforementioned conditions.

Row | IC50 | Compound
1 | 100 nM | CC1(CCS)CN2CCCC(C(=O)O)N2C1=O (stereo not drawn) [Compound B, Hexahydro-2-(2-mercaptoethyl)-2-methyl-3-oxo-1H-pyrazolo[1,2-a]pyridazine-5-carboxylic acid]
2 | 43 nM | CCC1(CCS)C(=O)N2CC=CC(C(=O)O)N2C1=O (stereo not drawn) [Compound C, 2-Ethyl-2,3,5,8-tetrahydro-2-(2-mercaptoethyl)-1,3-dioxo-1H-pyrazolo-[1,2-a]pyridazine-5-carboxylic acid]
3 | 100 nM | CC1(CCS)C(=O)N2CCCC(C(=O)O)N2C1=O (stereo not drawn) [Compound A, Hexahydro-2-(2-mercaptoethyl)-2-methyl-1,3-dioxo-1H-pyrazolo[1,2-a]pyridazine-5-carboxylic acid]
